Values of other authors as cited in US20150290251A1, “USE OF EGGSHELL MEMBRANE FORMULATIONS TO ALLEVIATE JOINT PAIN” (U.S. NUTRACEUTICALS, LLC d/b/a Valensa International, priority 2009, published 2015).

Experiments:
[1] = human trials; 4 mgs/day; compared to untreated subjects
[2] = compared with alpha-tocopherol
C-Reactive Protein (CRP) = conditions: human subjects with high risk levels of CRP; three months of treatment
NO, PGE-2 and TNF-Alpha = conditions: induced uveitis; suppression of NO, PGE-2 and TNF-Alpha by directly blocking NO synthase activity
lens epithelial cells = conditions: in vitro lens epithelial cells; umol/L concentrations
[3] = system: cellular membrane lipid peroxidation

CC1=C(/C=C/C(C)=C/C=C/C(C)=C/C=C/C=C(C)/C=C/C=C(C)/C=C/C2=C(C)C(=O)C(O)CC2(C)C)C(C)(C)CC(O)C1=O (stereo not drawn) [Astaxanthin, 3,3′-dihydroxy-β, β-carotene-4, 4′dione]
prevention of joint pain following strenuous knee exercise [1]: completely prevented
ability to quench singlet oxygen relative to alpha-tocopherol [2]: over five hundred times
patients whose serum CRP levels dropped below the risk level (C-Reactive Protein (CRP)): 43 % of patients
ocular anti-inflammatory activity (NO, PGE-2 and TNF-Alpha): dose dependent ocular anti-inflammatory activity
suppression of UVB induced lipid peroxidative mediated cell damage (lens epithelial cells): dramatically suppresses
effect on pro-oxidant activity of Vioxx [3]: completely negates
